Laboratory results taken from paper PMC9262584 (2022).

Tests used:
[1] = tested on: Cd1^83 (RNA, riboswitch) GGAAACUAAAUAGGCAAAUCUAGAGAAAUCUAGUGACGCAAAGCUAUAGGGACUAAGGUUUAUAUACAUAAACUAUGUCAGCCAG; test: ITC; details: 120 mM NaCl, 8 mM MgCl2 (RNA wash buffer); 50 mM Bis-Tris pH 6.1; individual ITC conditions in SI Figures S11/S12
[2] = tested on: Cd1^86 (RNA, riboswitch) GGAAACUAAAUAGGCAAAUCUAGAGAAAUCUAGUGACGCAAAGCUAUAGGGACUAAGGUUUAUAUACAUAAACUAUGUCAGCCAGUUG; test: ITC; details: 120 mM NaCl, 8 mM MgCl2 (RNA wash buffer); 50 mM Bis-Tris pH 6.1; individual ITC conditions in SI Figures S11/S12
[3] = tested on: Cd1^87 (RNA, riboswitch) GGAAACUAAAUAGGCAAAUCUAGAGAAAUCUAGUGACGCAAAGCUAUAGGGACUAAGGUUUAUAUACAUAAACUAUGUCAGCCAGUUGC; test: ITC; details: 120 mM NaCl, 8 mM MgCl2 (RNA wash buffer); 50 mM Bis-Tris pH 6.1; individual ITC conditions in SI Figures S11/S12
[4] = tested on: Cd1^88 (RNA, riboswitch) GGAAACUAAAUAGGCAAAUCUAGAGAAAUCUAGUGACGCAAAGCUAUAGGGACUAAGGUUUAUAUACAUAAACUAUGUCAGCCAGUUGCC; test: ITC; details: 120 mM NaCl, 8 mM MgCl2 (RNA wash buffer); 50 mM Bis-Tris pH 6.1; individual ITC conditions in SI Figures S11/S12
[5] = tested on: Cd1^135 (RNA, riboswitch) GGAAACUAAAUAGGCAAAUCUAGAGAAAUCUAGUGACGCAAAGCUAUAGGGACUAAGGUUUAUAUACAUAAACUAUGUCAGCCAGUUGCCAAAAAGAGUCCUAGGUGUAUUGUAUACCUAAGAAAAGUCUAUAAUGA; test: ITC; details: 120 mM NaCl, 8 mM MgCl2 (RNA wash buffer); 50 mM Bis-Tris pH 6.1; individual ITC conditions in SI Figures S11/S12
[6] = tested on: Cd1^146 (RNA, riboswitch) GGAAACUAAAUAGGCAAAUCUAGAGAAAUCUAGUGACGCAAAGCUAUAGGGACUAAGGUUUAUAUACAUAAACUAUGUCAGCCAGUUGCCAAAAAGAGUCCUAGGUGUAUUGUAUACCUAAGAAAAGUCUAUAAUGACUGCCUUUUUG; test: ITC; details: 120 mM NaCl, 8 mM MgCl2 (RNA wash buffer); 50 mM Bis-Tris pH 6.1; individual ITC conditions in SI Figures S11/S12
[7] = tested on: Cd1^88 C81A (RNA, riboswitch) GGAAACUAAAUAGGCAAAUCUAGAGAAAUCUAGUGACGCAAAGCUAUAGGGACUAAGGUUUAUAUACAUAAACUAUGUCAGCAAGUUGCC; test: 1H NMR reporter peaks; details: 110 mM NaCl, MgCl2 at 40 equiv. over RNA; 50 mM Bis-Tris, 5-10% D2O
[8] = tested on: Cd1^88 A24-26U (RNA, riboswitch) GGAAACUAAAUAGGCAAAUCUAGAGUUUUCUAGUGACGCAAAGCUAUAGGGACUAAGGUUUAUAUACAUAAACUAUGUCAGCCAGUUGCC; test: 1H NMR reporter peaks; details: 110 mM NaCl, MgCl2 at 40 equiv. over RNA; 50 mM Bis-Tris, 5-10% D2O
[9] = tested on: Cd1^80 (RNA, riboswitch) GGAAACUAAAUAGGCAAAUCUAGAGAAAUCUAGUGACGCAAAGCUAUAGGGACUAAGGUUUAUAUACAUAAACUAUGUCAGC; test: 1H NMR reporter peaks; details: 110 mM NaCl, MgCl2 at 40 equiv. over RNA; 50 mM Bis-Tris, 5-10% D2O
[10] = tested on: Cd1^81 (RNA, riboswitch) GGAAACUAAAUAGGCAAAUCUAGAGAAAUCUAGUGACGCAAAGCUAUAGGGACUAAGGUUUAUAUACAUAAACUAUGUCAGCC; test: 1H NMR reporter peaks; details: 110 mM NaCl, MgCl2 at 40 equiv. over RNA; 50 mM Bis-Tris, 5-10% D2O
[11] = tested on: Cd1^82 (RNA, riboswitch) GGAAACUAAAUAGGCAAAUCUAGAGAAAUCUAGUGACGCAAAGCUAUAGGGACUAAGGUUUAUAUACAUAAACUAUGUCAGCCA; test: 1H NMR reporter peaks; details: 110 mM NaCl, MgCl2 at 40 equiv. over RNA; 50 mM Bis-Tris, 5-10% D2O
[12] = tested on: Cd1^88 C87A (RNA, riboswitch) GGAAACUAAAUAGGCAAAUCUAGAGAAAUCUAGUGACGCAAAGCUAUAGGGACUAAGGUUUAUAUACAUAAACUAUGUCAGCCAGUUGAC; test: 1H NMR reporter peaks; details: 110 mM NaCl, MgCl2 at 40 equiv. over RNA; 50 mM Bis-Tris, 5-10% D2O
[13] = tested on: Cd1^88 C88A (RNA, riboswitch) GGAAACUAAAUAGGCAAAUCUAGAGAAAUCUAGUGACGCAAAGCUAUAGGGACUAAGGUUUAUAUACAUAAACUAUGUCAGCCAGUUGCA; test: 1H NMR reporter peaks; details: 110 mM NaCl, MgCl2 at 40 equiv. over RNA; 50 mM Bis-Tris, 5-10% D2O
[14] = tested on: Cd1^88 G11A (RNA, riboswitch) GGAAACUAAAUAAGCAAAUCUAGAGAAAUCUAGUGACGCAAAGCUAUAGGGACUAAGGUUUAUAUACAUAAACUAUGUCAGCCAGUUGCC; test: 1H NMR reporter peaks; details: 110 mM NaCl, MgCl2 at 40 equiv. over RNA; 50 mM Bis-Tris, 5-10% D2O
[15] = tested on: Cd1^88 G11C (RNA, riboswitch) GGAAACUAAAUACGCAAAUCUAGAGAAAUCUAGUGACGCAAAGCUAUAGGGACUAAGGUUUAUAUACAUAAACUAUGUCAGCCAGUUGCC; test: 1H NMR reporter peaks; details: 110 mM NaCl, MgCl2 at 40 equiv. over RNA; 50 mM Bis-Tris, 5-10% D2O
[16] = tested on: Cd1^148 (RNA, riboswitch) GGAAACUAAAUAGGCAAAUCUAGAGAAAUCUAGUGACGCAAAGCUAUAGGGACUAAGGUUUAUAUACAUAAACUAUGUCAGCCAGUUGCCAAAAAGAGUCCUAGGUGUAUUGUAUACCUAAGAAAAGUCUAUAAUGACUGCCUUUUUGGC; test: 2D 1H/15N correlation NMR; details: 110 mM NaCl, MgCl2 at 40 equiv. over RNA; 50 mM Bis-Tris, 5-10% D2O
[17] = tested on: Cd1^149 (RNA, riboswitch) GGAAACUAAAUAGGCAAAUCUAGAGAAAUCUAGUGACGCAAAGCUAUAGGGACUAAGGUUUAUAUACAUAAACUAUGUCAGCCAGUUGCCAAAAAGAGUCCUAGGUGUAUUGUAUACCUAAGAAAAGUCUAUAAUGACUGCCUUUUUGGCA; test: 2D 1H/15N correlation NMR; details: 110 mM NaCl, MgCl2 at 40 equiv. over RNA; 50 mM Bis-Tris, 5-10% D2O
[18] = tested on: Cd1^147 (RNA, riboswitch) GGAAACUAAAUAGGCAAAUCUAGAGAAAUCUAGUGACGCAAAGCUAUAGGGACUAAGGUUUAUAUACAUAAACUAUGUCAGCCAGUUGCCAAAAAGAGUCCUAGGUGUAUUGUAUACCUAAGAAAAGUCUAUAAUGACUGCCUUUUUGG; test: 2D 1H/15N correlation NMR; details: 110 mM NaCl, MgCl2 at 40 equiv. over RNA; 50 mM Bis-Tris, 5-10% D2O

Nc1nc2c(ncn2[C@@H]2O[C@@H]3COP(=O)(O)O[C@H]4[C@@H](O)[C@H](n5cnc6c(=O)[nH]c(N)nc65)O[C@@H]4COP(=O)(O)O[C@H]3[C@H]2O)c(=O)[nH]1
KD [1]: > >100 μM
KD [2]: 35 ± 10 µM
KD [3]: 1.9 ± 0.1 µM
KD [4]: 0.25 ± 0.04 µM
KD [5]: 0.6 ± 0.03 µM
KD [6]: 7 ± 2 µM
binding [7]: no
binding [8]: no
binding [9]: no
binding [10]: no
binding [11]: no
binding [12]: weak
binding [13]: yes
binding [14]: yes
binding [15]: yes
binding [16]: no
binding [17]: no
binding [18]: yes
